Experiments:
Format in all cases: in vivo, rat
[1] = system: mRNA for the estrogen receptor; assay: Repeated administration of Cimicifuga racemosa: mRNA expression in preoptic region of the hypothalamus (RT-PCR); conditions: 7 days s.c.; semi-quantitative RT-PCR
Experimental: Both substances were dissolved in 5% cremophor, the control animals only received the vehicle.
(§6) Following decapitation of the animals, brains, uterus and femur were prepared for mRNA-recovery. […] The expression of the estrogen-regulated genes in the above identified organs was determined by means of semi-quantitative RT-PCR.
(§7) As another marker for the estrogenic effect, the activation of mRNA of estrogen-inducible proteins was measured. What was measured here was tissue from uterus, from bone tissue (femur) and from the preoptic region of the hypothalamus.

[2] = system: collagen-1A1, osteocalcin, IGF1 and TGFβ-mRNA, CCO gene in femur head; assay: Subacute test 7 days s.c. (Belamcanda sinensis): mRNA expression in extracts of the femur head; conditions: 7 days daily s.c.
Experimental: In extracts of the femur head, the collagen-1A1, osteocalcin, IGF1 and TGFβ-mRNA expression was determined.

[3] = system: mRNA for collagen 1 and osteocalcin; assay: Repeated administration of Cimicifuga racemosa: mRNA expression in bone (femur) (RT-PCR); conditions: 7 days s.c., semi-quantitative RT-PCR
Experimental: (§8) 14 days following ovarectomy at the earliest, the animals have the respective test substance injected subcutaneously in a dose of 62.5 mg Cimicifuga racemosa/rat or 8 pg estradiol/rat once daily in the morning over a period of 7 days. Both substances were dissolved in 5% cremophor, the control animals only received the vehicle.
as §6, §7

[4] = system: ovariectomized Sprague-Dawley rats; assay: Repeated s.c. administration of Cimicifuga racemosa over 7 days: uterus weight, vagina, LH; conditions: 7 days s.c. once daily
Experimental: as §8
The LH concentration in the blood of the animals was determined by means of RIA.

[5] = system: uterine VEGF gene, CCO gene; assay: Subacute test 7 days s.c. (Belamcanda sinensis): gene expression in uterine mRNA extract; conditions: after one-week treatment, 10 μg estradiol s.c. daily
Experimental: (§1) All experiments described below were carried out with ovariectomized Sprague-Dawley rats (=ovx rats) having a weight between 240 and 280 g.
The effects of repeated administration of estradiol, Belamcanda sinensis extract and vehicle on overall weight, uterus weight, hormone level and gene activation of uterus and bone were examined on ovariectomized rats after daily s.c. application through seven days.
8 animals each per test group (24 altogether) were daily injected subcutaneously between 8:00 and 9:00 a.m. with 62.5 mg Belamcanda sinensis extract and 10 μg estradiol or the solvent (cremophor 5%, 1 ml), respectively. 6 h after the last application, the animals were decapitated and from every animal the aorta, the uterus and the left femur head were removed, cleaned, and frozen in liquid nitrogen.

[6] = system: ovariectomized Sprague-Dawley rats; assay: Subacute test, daily s.c. injection through 7 days (Belamcanda sinensis): body weight, uterus weight, serum LH; conditions: 7 days daily s.c., 62.5 mg extract or 10 μg estradiol
Experimental: In the blood samples, LH and the estradiol immunoreactivity were determined.

[7] = system: uterine VEGF, IGF1 and C3 genes, CCO gene; assay: Acute experiment, single i.v. injection: uterine gene expression; conditions: six hours after single i.v. injection; vs controls
Experimental: (§2) All experiments described below were carried out with ovariectomized Sprague-Dawley rats (=ovx rats) having a weight between 240 and 280 g. […] On the day of the experiment, 6 blood samples were taken at 10-min intervals. Immediately following taking of the 6th sample, 62.5 mg of the Belamcanda sinensis extract or 10 μg 17-β-estradiol (E2) or the solvent (5%) cremophor in isotonic NaCl 1 ml), respectively, were injected intravenously, and blood samples were taken for another 2 hours in 10-minute intervals. 6 hours after the intravenous administration, the animals were decapitated, blood was obtained and the uteri removed, weighed and deep-frozen in liquid nitrogen.

[8] = system: mRNA for IGF1 and complement factor C3; assay: Repeated administration of Cimicifuga racemosa: mRNA expression in uterus (RT-PCR); conditions: 7 days s.c.; semi-quantitative RT-PCR
Experimental: as §8, §6
What was measured here was tissue from uterus, from bone tissue (femur) and from the preoptic region of the hypothalamus.

[9] = system: ovariectomized Sprague-Dawley rats; assay: Acute experiment, single i.v. injection of Belamcanda sinensis extract: serum LH
Experimental: as §2, with “g. The onset of the effect of the estradiol-type effect of Belamcanda sinensis extract occurs very quickly. Even after a single i.v. administration of vehicle, estradiol and Belamcanda sinensis extract to ovx rats, pulsatility ceases both under E2 and under Belamcanda sinensis. […] Cremophor is an emulsifier on the basis of polyethoxylated castor oil derivatives. The results are represented in FIG. 2.” for “g.”

[10] = system: ovariectomized Sprague-Dawley rats; assay: One-time i.v. administration of tectorigenin: LH levels in the blood; conditions: single i.v. 7 mg tectorigenin
Experimental: as §1
(§3) Following a single administration of tectorigenin, the time development of influence on the LH levels in the blood and the estradiol-type immunoreactivity were determined. The concentration of tectorigenin in the blood of the animals, determined with the aid of E2-RIA, after 20 min corresponds to about 100 pg equivalent estradiol.
(§4) Execution: OVX rats had catheters placed in the vena jugularis externa under ether anesthesia 24 hours before the beginning of the experiment, in accordance with the method of Harms and Ojeda (Harms P G; Ojeda S R: A rapid and simple procedure for chronic cannulation of the rat jugular vein. J. Appl. Physiol. (1974) 36: 391-392). The tube end was positioned in a skin pocket in the neck. In order not to have to touch the animals for obtaining the blood samples, the catheter was prolonged with the aid of a silicone tube. Catheter and tube were rinsed with Ringer solution containing 50 IU heparin/ml.
Blood samples of 100 μl each were drawn from the animals at 10-min intervals, and the withdrawn volume replaced with Ringer/heparin solution. After the 6th sample, 1.0 ml of the respective test solution was applied intravenously. As test solutions there were used: 2% cremophor (=vehicle solution), tectorigenin 7 mg/ml vehicle, 17-β-estradiol 10 μg/ml vehicle. Blood was taken at ten-minute intervals through additional 140 min.
The blood samples thus obtained were filled into a 0.5 ml Eppendorf reaction vessel containing 10 μl heparin-Losung (5000 IU/ml, Liquemin), centrifuged for 10 min at 10 000*g, and the plasma stored at −20° C. until performance of the radioimmunoassays.
(§5) The RIAs for LH and Prolaktin are based on antisera, reference and iodisation preparations from NIH (Bethesda, Md., USA). The concentrations of estradiol and of the cross-reactive isoflavones were measured with the aid of an RIA from DPC, Bad Nauheim.

[11] = One-time i.v. administration of tectorigenin: estradiol-type immunoreactivity in blood (E2-RIA); conditions: after 20 min; single i.v. 7 mg tectorigenin; ovx rats
Experimental: as §1, §3
as §4, with “heparin/ml. […]” for “heparin/ml.”
as §5

## C[C@]12CC[C@@H]3c4ccc(O)cc4CC[C@H]3[C@@H]1CC[C@@H]2O [E2, 17-β-estradiol]
[1]
  expression of the mRNA for the estrogen receptor in the preoptic region of the hypothalamus: stimulate
[2]
  IGF1 mRNA expression in femur head: significantly inhibited
  TGFβ mRNA expression in femur head: significantly inhibited
  collagen-1A1 mRNA expression in femur head: significantly inhibited
  constitutive CCO gene expression in femur head: without having an influence
  osteocalcin mRNA expression in femur head: significantly inhibited
[3]
  expression of the mRNA for osteocalcin in bone tissue: reduces, in analogy with estradiol
  expression of the mRNA for the bone-specific collagen 1 in bone tissue: reduces, in analogy with estradiol
[4]; 62.5 mg Cimicifuga racemosa/rat or 8 pg estradiol/rat, n=8, RIA
  LH concentrations in the blood, mean values: 7.83 ng/mL
[4]; 62.5 mg Cimicifuga racemosa/rat or 8 pg estradiol/rat, n=8, ovx rats
  Uterus weights (wet), mean values: 702.1 mg
[4]; ovx rats
  LH levels compared with vehicle (in words): lowered significantly
  hornification of the vaginal epithelium tissue: quite contrary
  uterus weight compared with vehicle (in words): more than three times the weight
[5]
  gene expression of VEGF in uterine mRNA extract: 149 % of the control value
[6]; vs cremophor
  average body weights: significantly lighter
  uterus weights: more than tripled
[6]; vs cremophor controls
  serum LH levels: more marked
[7]
  expression of the uterine C3 gene: clear increase
  expression of the uterine IGF1 gene: clear increase
  expression of the uterine VEGF gene: clear increase
[8]
  mRNA for IGF1 in the uterus: increases
  mRNA for complement factor C3 in the uterus: increases
[9]; 62.5 mg extract or 10 μg E2, ovx rats
  LH pulsatility: ceases
[9]; 62.5 mg extract or 10 μg E2, prior to and 2 hours after injection, vs previous values and cremophor controls
  serum LH levels: significant inhibitions

## COc1c(O)cc2occ(-c3ccc(O)cc3)c(=O)c2c1O [tectorigenin]
[10]; compared with 10 μg 17-β-estradiol
  kinetics of the LH reduction up to 60 min following i.v. administration: precisely correspond to the one of estradiol
[10]; ovx rats
  LH levels in the blood: rapid LH reduction
[10]; sampling to 140 min
  course of LH after 60 min following i.v. administration: do not result in further reduction but slowly increases again
[11]
  concentration of tectorigenin in the blood, determined with E2-RIA: about 100 pg equivalent estradiol
